Results from patent publication US12414995B2, “Bifunctional compounds comprising Apcin-A and their use in the treatment of cancer” (Northwestern University, priority 2019, dated 2025).

Tests used:
Cdc20 [1] = biological target: T1, Cdc20 (Homo sapiens, UniProt Q12834); test: Cdc20 ubiquitylation (immunoprecipitation, anti-ubiquitin immunoblot) in MDA-MB-231 cells; conditions: 2 μM, with MG-132
Procedure: Cdc20 were immunoprecipitated by antibody against Cdc20 followed by immunoblotting using anti-ubiquitin antibody.
Beads were then boiled for 5 min and analyzed by SDS/PAGE. Western blotting was performed according to standard protocols.
To confirm the CP5V-induced degradation of Cdc20 is mediated through the ubiquitin-proteasome pathway, the Cdc20 ubiquitylation in the absence and presence of CP5V as well as Apcin-A was measured.

Cdc20 [2] = biological target: T1, Cdc20; test: Cdc20 degradation by Western blotting in MCF-7 cells; conditions: various dosages
Procedure: (§5) MCF-7, MDA-MB-231 cells were cultured in DMEM medium supplemented with 10% fetal bovine serum (FBS) and 1% penicillin-streptomycin. Flag-Cdc20 MDA-MB-231 cells were cultured in complete DMEM media introduced before with 1 μg/ml Tamoxifen. The Cdc20, cyclin-B and actin antibodies were purchased from Sigma. The actin antibodies were diluted 1:5000. The Cdc20, Cyclin-B and ubiquitin antibodies were diluted 1:1000. The agarose beads were purchased from Cell Signaling Technology.
(§6) The lysates were analyzed by SDS/PAGE. Western blotting was performed by transferring samples onto a nitrocellulose membrane, incubating in 5% milk in TBST (Tris-buffered Saline with Tween 20) at room temperature for 1 h and probing with indicated antibody overnight at 4° C. Membranes were visualized using the ECL prime western blotting detection reagent (GE Healthcare, RPN2232).
(§7) The time course for CP5V-induced Cdc20 degradation was also measured in both cell lines.

MDA-MB-435 cells [3] = test: Cell cycle analysis by flow cytometry in MDA-MB-435 cells; assay type: cell-based; conditions: for mitotic arrest: synchronized
Procedure: (§1) Flow cytometry analysis. MDA-MB-231 and MDA-MB-435 cells were plated in a 6-cm dish and double-synchronized for 18 h and then 15 h with a 9-hour release with fresh medium between them. The cells were released and treated with DMSO, Apcin and CP5V at indicated concentrations for 24 h. After treatment, the cells were collected and stained with propidium iodide (PI) staining buffer and analyzed by flow cytometry.
(§2) Given that Cdc20-APC/C regulates mitotic progression through proteolysis of securin and cyclin B1, CP5V-mediated degradation of Cdc20 was examined for resultant changes of the protein level of securin and cyclin B1. […]. […]

MDA-MB-231 cells [4] = test: Cell cycle analysis by flow cytometry in MDA-MB-231 cells; assay type: cell-based; conditions: for mitotic arrest: double-thymidine synchronized
Procedure: . In this example, cell cycle analysis of MDA-MB-231 cells was performed after CP5V treatment. The MDA-MB-231 cells were initially synchronized by double-thymidine followed by treatment with CP5V for 16 hours. Cell cycle profile was then measured by flow cytometry.
as §1, §2

HIF1α = HIF1α accumulation by Western blot in MDA-MB-231 cells; assay type: cell-based; conditions: 10 hours; for HIF1α level: indicated dosages
Procedure: (§3) MDA-MB-231 cells treated with CP5V at indicated dosages for 10 hours were harvested for Western Blot.
MDA-MB-231 cells treated with VHL Ligand 1 at indicated dosages for 10 hours and collected for WB.
Relatively high potential dosage of VHL ligand 1 (VHL1), the VHL-binding moiety offered by CP5V, causes concern if it affects HIF1α, the substrate of VHL.

MDA-MB-435 eb cells [5] = system: MDA-MB-435 eb cells
MDA-MB-435 cells [6] = test: Cell proliferation CCK8 assay in MDA-MB-435 cells; assay type: cell-based; conditions: Homo sapiens, 72 h, read-out: IC50 of cell growth inhibition
Description: (§4) Cell proliferation assays.

U2OS cells = test: Cell survival CCK8 assay in U2OS cells; conditions: 72 hours
Procedure: (§8) The test was performed in triplicate (n=3). Data are mean±SEM.

MCF7 cells = test: Clonogenic assay in MCF7 cells; conditions: 1 μM for 24 hours, then culture 2 weeks
Description: Data are presented as the mean±standard error of the mean (S.E.) of three independent samples (**p<0.01).

MDA-MB-231 cells [7] = test: Cell proliferation CCK8 assay in MDA-MB-231 cells; assay type: cell-based; conditions: Homo sapiens, 72 h, read-out: IC50 of cell growth inhibition
Description: as §4

Cdc20 mRNA = test: Cdc20 RNA level by qRT-PCR in MDA-MB-231 cells; assay type: cell-based; conditions: indicated dosages, 10 hours
Procedure: MDA-MB-231 cells treated with CP5V at indicated dosages for 10 hours were harvested for RNA extraction, reverse-transcription, and further qRT-PCR.
To further confirm the conclusion that the CP5V-medicated degradation is depending on the ubiquitin-proteasome system, RT-PCR was conducted to measure the alteration of Cdc20 RNA levels in response to CP5V treatment.

4T1 xenograft tumor = test: Mouse 4T1 xenograft model; conditions: 100 mg/kg intraperitoneally twice per week
Procedure: In this model, 5×10^5 cells 4T1 cells in PBS were injected into the Balb/C mice mammary fat pad. When tumors were palpable, tumor growth was measured for 3 weeks and calculated as 0.52xLXWxW (L=Length, W=Width). […] The mice were sacrificed at the end of treatment, and the xenograft tumor was collected, formalin fixed, paraffin embedded, sectioned. Immunohistochemistry (IHC) was conducted with xenograft tumor and liver tissues to detect Cdc20, Ki67, Activate and Caspase-3.

cyclin B1 = test: Cyclin B1 level by Western blotting in MDA-MB-231 cells; assay type: cell-based; conditions: indicated dose, 10 hours
Procedure: […]. Cdc20 and cyclin-B levels were then determined by Western blotting.
as §2

[8] = system: Tamoxifen-resistant breast cancer cells; test: Endocrine response of Tamoxifen-resistant breast cancer cells; assay type: cell-based
LNCaP cells = test: Cell survival CCK8 assay in LNCaP cells; conditions: 72 hours
Procedure: as §8

22Rv1 cells = test: Cell survival CCK8 assay in 22Rv1 cells; conditions: 72 hours
Procedure: as §8

Cdc27 = Cdc27 protein level by Western blot in MDA-MB-231 cells (specificity); assay type: cell-based; conditions: indicated dosages, 10 hours
Procedure: as §3
To test the specificity for CP5V in targeting Cdc20, the dosage experiment based on MDA-MB-231 cells was repeated and the alteration of protein levels for Cdc20 and Cdc27, another core subunit of anaphase-promoting complex, was measured.

MDA-MB-435 eb cells [9] = test: cells; conditions: Homo sapiens, MDA-MB-435, read-out: growth inhibition
Cdc20 [10] = biological target: T1, Cdc20; test: Cdc20 degradation by Western blotting in MDA-MB-231 cells; conditions: MLN4924 5 μM with CP5V, 10 hours
Procedure: as §5, §6, §7

T1 sequence (Q12834 whole entry): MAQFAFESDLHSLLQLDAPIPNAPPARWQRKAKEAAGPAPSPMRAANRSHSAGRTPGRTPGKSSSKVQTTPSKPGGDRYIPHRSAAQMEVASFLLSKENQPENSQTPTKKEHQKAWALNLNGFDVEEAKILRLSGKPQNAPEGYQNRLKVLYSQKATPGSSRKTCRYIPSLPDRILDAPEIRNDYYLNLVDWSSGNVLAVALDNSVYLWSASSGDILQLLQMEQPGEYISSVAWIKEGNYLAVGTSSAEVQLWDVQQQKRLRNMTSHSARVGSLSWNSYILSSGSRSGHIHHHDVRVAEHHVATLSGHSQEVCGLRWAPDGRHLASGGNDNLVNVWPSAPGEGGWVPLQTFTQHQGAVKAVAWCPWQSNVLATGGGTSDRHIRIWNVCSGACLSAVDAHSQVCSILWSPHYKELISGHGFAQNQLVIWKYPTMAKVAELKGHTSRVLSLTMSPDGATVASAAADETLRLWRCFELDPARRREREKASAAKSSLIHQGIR

NCCCOC(=O)NC(Nc1ncccn1)C(Cl)(Cl)Cl (centres unmarked) [Apcin-A, 3-aminopropyl (2,2,2-trichloro-1-(pyrimidin-2-ylamino)ethyl)carbamate]
Cdc20 ubiquitylation (Cdc20 [1]): no obvious effect | Cdc20 protein level (degradation) (Cdc20 [2]): no degradation of Cdc20

Cc1ncc([N+](=O)[O-])n1CCOC(=O)NC(Nc1ncccn1)C(Cl)(Cl)Cl (centres unmarked) [Apcin]
mitotic arrest (MDA-MB-435 cells [3]): no effect | mitotic arrest (MDA-MB-231 cells [4]): no effect

Cc1ncsc1-c1ccc(CNC(=O)[C@@H]2C[C@@H](O)CN2C(=O)[C@@H](N)C(C)(C)C)cc1 [VHL ligand 1]
concentration that induced HIF-α accumulation (HIF1α): ≥ 1 µM | HIF1α level (HIF1α): significant HIF1α is accumulated

Cc1ncsc1-c1ccc(CNC(=O)[C@@H]2C[C@@H](O)CN2C(=O)[C@H](NC(=O)CCOCCOCCOCCOCCOCCC(=O)NCCCOC(=O)NC(Nc2ncccn2)C(Cl)(Cl)Cl)C(C)(C)C)cc1 (stereo partly drawn) [CP5V, (R)-25-((2S,4R)-4-hydroxy-2-((4-(4-methylthiazol-5-yl)benzyl)carbamoyl)pyrrolidine-1-carbonyl)-26,26-dimethyl-5,23-dioxo-8,11,14,17,20-pentaoxa-4,24-diazaheptacosyl (2,2,2-trichloro-1-(pyrimidin-2-ylamino)ethyl)carbamate]
Taxol-cytotoxic response of Taxol-resistant cells (MDA-MB-435 eb cells [5]; with 5 nM paclitaxel): significantly restored their Taxol-cytotoxic response | IC50 (MDA-MB-435 cells [6]): 1990 nM | inhibition of cell growth (U2OS cells): significant inhibition of cell growth | colony formation (killing of breast cancer cells) (MCF7 cells): potent efficacy in killing breast cancer cells | cells arrested in the G2/M phase (MDA-MB-435 cells [3]; 2 μM): > 50% | fraction of cells in the G0/G1 phase (MDA-MB-435 cells [3]; 2 μM, versus control cells): much lower compared to control cells | mitotic arrest (MDA-MB-435 cells [3]): induces mitotic arrest | IC50 (MDA-MB-231 cells [7]): 2600 nM | HIF1α level (HIF1α): no obvious alteration of HIF1α | Cdc20 mRNA level (Cdc20 mRNA): no significant change | Cdc20 expression in the xenograft tumor (IHC) (4T1 xenograft tumor): decreased Cdc20 expression | Ki67 index in the tumor (IHC) (4T1 xenograft tumor): decreasing the Ki67 index | effect on mice body weight (4T1 xenograft tumor): no significant effect | expression of caspase-3 in the tumor (IHC) (4T1 xenograft tumor): did not change dramatically | liver toxicity (4T1 xenograft tumor): no significant effect | reduction of the size of the xenograft tumor compared to placebo (4T1 xenograft tumor; Balb/C mice): approximately 70% | reduction of the weight of the xenograft tumor compared to placebo (4T1 xenograft tumor; Balb/C mice): approximately 70% | cyclin B1 level (cyclin B1): largely accumulated | re-sensitization to Tamoxifen [8]: re-sensitizes Tamoxifen-resistant breast cancer cells to Tamoxifen treatment | inhibition of cell growth (LNCaP cells): significant inhibition of cell growth | inhibition of cell growth (22Rv1 cells): significant inhibition of cell growth | cells arrested in the G2/M phase (MDA-MB-231 cells [4]; 2 μM): over 40% | fraction of cells in the G0/G1 phase (MDA-MB-231 cells [4]; 2 μM, versus control cells): much lower compared to control cells | mitotic arrest (MDA-MB-231 cells [4]): induces mitotic arrest | Cdc27 protein level (Cdc27): no Cdc27 protein level change | inhibition at 5 µM (MDA-MB-435 eb cells [9]): > 50%

NS(=O)(=O)OC[C@@H]1C[C@@H](n2ccc3c(N[C@H]4CCc5ccccc54)ncnc32)C[C@@H]1O [MLN4924]
effect on CP5V-mediated Cdc20 degradation (Cdc20 [10]): inhibited the degradation of Cdc20 caused by CP5V

CC(=O)O[C@H]1C(=O)[C@@]2(C)[C@H]([C@H](OC(=O)c3ccccc3)[C@]3(O)C[C@H](OC(=O)[C@H](O)[C@@H](NC(=O)c4ccccc4)c4ccccc4)C(C)=C1C3(C)C)[C@]1(OC(C)=O)CO[C@@H]1C[C@@H]2O [paclitaxel, reference compound]
cells survived (MDA-MB-435 eb cells [5]; 5 nM paclitaxel alone): about 92% | inhibition at 0.005 µM (MDA-MB-435 eb cells [9]): < 10%
